Test [1] can be described thus: Antiproliferative activity against human SU-DHL4 cells after 72 hrs by Cell-Titer Glo assay in presence of 10% FBS. The test is classed as functional, cell-based, SUD4. As to conditions: SU-DHL-4, 72 h.
The subject of test [2] is MV4-11. Briefly: Antiproliferative activity against human MV411 cells after 72 hrs by Cell-Titer Glo assay in presence of 10% FBS. As to conditions: MV4-11, 72 h. The test is classed as functional, cell-based.
For test [3], the system named is SUD4. Briefly: Induction of apoptosis in human SU-DHL4 cells assessed as cytochrome c release at 0.1 to 10 uM after 24 hrs by Western blot analysis. Format: functional, cell-based. In general terms: Immunoblotting shows a protein as a band on a membrane.
The target in test [4] is Apoptosis regulator Bcl-2 (Homo sapiens, UniProt P10415). Briefly: Inhibition in GST-tagged Bcl2 using [FAM]-IWIAQELRRIGDEFNAYY-NH2 as substrate after 60 mins by fluorescence polarization assay. (Fluorescence polarisation rises when a labelled molecule tumbles more slowly, as on binding a larger partner.)
The subject of test [5] is MV4-11. Briefly: Antiproliferative activity against human MV411 cells after 72 hrs by Cell-Titer Glo assay in presence of 2% FBS. Format: functional, cell-based. As to conditions: MV4-11, 72 h.
In test [6] the test system is SUD4. Briefly: Induction of apoptosis in human SU-DHL4 cells assessed as BAK oligomerization at 0.1 to 10 uM after 24 hrs by Western blot analysis. Format: functional, cell-based.
The nature of test [7]: Antiproliferative activity against human SU-DHL4 cells after 72 hrs by Cell-Titer Glo assay in presence of 2% FBS. Format: functional, cell-based, SUD4. As to conditions: SU-DHL-4, 72 h.
Another test concerns the target Bcl-2-like protein 1 (Homo sapiens, UniProt Q07817). Briefly: Inhibition of Bcl-XL using fluoresceinated 18-mer Bim as substrate after 60 mins by FRET analysis.
The subject of test [8] is SUD4. Briefly: Induction of apoptosis in human SU-DHL4 cells assessed as BAK oligomerization at 10 uM after 24 hrs by Western blot analysis. Format: functional, cell-based.
The subject of test [9] is SUD4. Briefly: Induction of apoptosis in human SU-DHL4 cells assessed as cytochrome c release at 10 uM after 24 hrs by Western blot analysis. Format: functional, cell-based.

As usually defined, the IC50 is the midpoint of a concentration-inhibition curve.

Activity calls are given as the source filed them. The rule behind the calls is not given here.

Sequence of Bcl-2-like protein 1 (Q07817 whole entry): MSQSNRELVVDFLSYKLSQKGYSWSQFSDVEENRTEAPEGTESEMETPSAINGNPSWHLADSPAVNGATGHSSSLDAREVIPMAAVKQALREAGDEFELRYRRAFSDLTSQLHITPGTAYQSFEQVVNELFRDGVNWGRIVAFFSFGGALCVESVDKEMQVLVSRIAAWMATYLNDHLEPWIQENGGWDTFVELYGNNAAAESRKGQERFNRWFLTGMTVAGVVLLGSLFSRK
Sequence of Apoptosis regulator Bcl-2 (P10415 whole entry): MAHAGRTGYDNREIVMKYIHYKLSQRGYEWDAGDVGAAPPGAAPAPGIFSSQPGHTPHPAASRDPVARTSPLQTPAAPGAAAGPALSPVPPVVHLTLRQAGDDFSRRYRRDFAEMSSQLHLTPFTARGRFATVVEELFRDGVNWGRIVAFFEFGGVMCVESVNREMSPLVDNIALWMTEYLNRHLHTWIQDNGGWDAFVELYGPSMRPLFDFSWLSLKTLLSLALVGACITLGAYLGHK

Turning to `CCCCN(CCCC)C(=O)c1nn(-c2ccc(C(=O)NS(=O)(=O)c3ccc4ccccc4c3)cc2C(=O)N2Cc3ccccc3C[C@H]2CO)c(C)c1Cl`, the concentration for half-maximal inhibition (IC50) in [1] was more than 10000 nM; with MV4-11 [2], more than 10000 nM; in test [4], 35 nM; with MV4-11 [5], more than 10000 nM; in test [7] it was more than 10000 nM. The outcome in the test with SUD4 [3] and in the test with SUD4 [6] was Active.
For the molecule `CCCCN(CCCC)C(=O)c1nn(-c2ccc(C(=O)NS(=O)(=O)c3ccc4ccccc4c3)cc2C(=O)N2Cc3ccccc3C[C@H]2CN)c(C)c1Cl`, the IC50 in test [1] is more than 10000 nM; with MV4-11 [2], more than 10000 nM; in test [4], 9 nM; with MV4-11 [5], 8500 nM; in test [7] it was more than 10000 nM. In addition, the outcome with SUD4 [3] and in the test with SUD4 [6] was Active.
The molecule `CCCCN(CCCC)C(=O)c1nn(-c2ccc(C(=O)NS(=O)(=O)c3ccc4cccc(OCCN5CCOCC5)c4c3)cc2C(=O)N2CCc3ccccc3C2)c(C)c1Cl` had an IC50 at Bcl-2-like protein 1 of 41 nM.
With `CCCCN(CCCC)C(=O)c1nn(-c2ccc(NS(=O)(=O)c3cc(Cl)cc(Cl)c3O)cc2C(=O)N2CCc3ccccc3C2)c(C)c1Cl`, the IC50 against Bcl-2-like protein 1 was 4300 nM; in test [4], 910 nM.
As for `CCCCN(CCCC)C(=O)c1nn(-c2ccc(C(=O)NS(=O)(=O)c3ccc4c(c3)CCN4Cc3ccc(Cl)c(Cl)c3)cc2C(=O)N2CCc3ccccc3C2)c(C)c1Cl`, the result in the test with SUD4 [8] and in the test with SUD4 [9] was Active. The IC50 in [1] is more than 10000 nM; with MV4-11 [2], more than 10000 nM; at Bcl-2-like protein 1, 44 nM; in test [4], 16 nM; with MV4-11 [5] it was more than 10000 nM; in [7] it was more than 10000 nM.
As to `CCCCN(CCCC)C(=O)c1nn(-c2ccc(C(=O)NS(=O)(=O)c3ccc4ccc(I)cc4c3)cc2C(=O)N2CCc3ccccc3C2)c(C)c1Cl`, on Bcl-2-like protein 1, 47 nM corresponded to half-maximal inhibition (IC50).
For the molecule `CCCCN(CCCC)C(=O)c1nn(-c2ccc(C(=O)NS(=O)(=O)c3ccc4ccccc4c3)cc2C(=O)N2Cc3ccccc3C[C@H]2CN2CCCC2)c(C)c1Cl`, the IC50 is more than 10000 nM in test [1]; more than 10000 nM in the test on MV4-11 [2]; 19 nM at Bcl-2-like protein 1; 47 nM in [4]; 1500 nM in the test on MV4-11 [5]; 1800 nM in test [7].
Consider `CC1(C)CCC(c2ccc(Cl)cc2)=C(CN2CCN(c3ccc(C(=O)NS(=O)(=O)c4ccc(N[C@H](CCN5CCOCC5)CSc5ccccc5)c(S(=O)(=O)C(F)(F)F)c4)cc3)CC2)C1`, for which the result in the test with SUD4 [3] and in the test on SUD4 [6] was Active.
Regarding `CCCCN(CCCC)C(=O)c1nn(-c2ccc(C(=O)NS(=O)(=O)c3ccc4ccccc4c3)cc2C(=O)N2CNc3ccccc3C2)c(C)c1Cl`, the IC50 (on Bcl-2-like protein 1; in test [4]) was 26 nM in each case.
As for `CCCCN(CCCC)C(=O)c1nn(-c2ccc(C(=O)NS(=O)(=O)c3ccc4c(c3)CCN4CC)cc2C(=O)N2CCc3ccccc3C2)c(C)c1Cl`, the results for the IC50 (against Bcl-2-like protein 1; in [4]) were 17 nM and 78 nM, respectively.
`CCCCN(CCCC)C(=O)c1nn(-c2ccc(C(=O)NS(=O)(=O)c3ccc4ccccc4c3)cc2C(=O)N2COc3ccccc3C2)c(C)c1Cl` came in with an IC50 against Bcl-2-like protein 1 of 62 nM.
As for `CCCCN(CCCC)C(=O)c1nn(-c2ccc(C(=O)NS(=O)(=O)c3ccc4c(c3)CCN4C(=O)c3ccc(Cl)c(Cl)c3)cc2C(=O)N2CCc3ccccc3C2)c(C)c1Cl`, the IC50 against Bcl-2-like protein 1 was found to be 550 nM; in test [4], 280 nM.
Taken in the same sequence, the figures for `O=C(c1ccc(CN(Cc2ccc(F)cc2)S(=O)(=O)c2cc(Cl)cc(Cl)c2O)cc1)N(Cc1ccc(F)cc1)Cc1cc(Cl)cc(Cl)c1` were more than 30000 nM and 35 nM.
With `CCCCN(CCCC)C(=O)c1nn(-c2ccc(C(=O)NS(=O)(=O)c3ccc4ccccc4c3)cc2C(=O)N2Cc3ccccc3C[C@H]2COCCCOC)c(C)c1Cl`, the half-maximal inhibitory concentration (IC50) in test [1] was more than 10000 nM; with MV4-11 [2], more than 10000 nM; against Bcl-2-like protein 1 it was 29 nM; in [4], 22 nM; with MV4-11 [5], 2800 nM; in [7], 5400 nM.
In the case of `CCCCN(CCCC)C(=O)c1nn(-c2ccc(C(=O)NS(=O)(=O)c3ccc4ccccc4c3)cc2C(=O)N2CCc3ccccc3C2C)c(C)c1Cl` (stereo not given), the values for the IC50 (at Bcl-2-like protein 1; in [4]) were 590 nM and 710 nM, respectively.
Taken in the same sequence, the figures for `CCCCN(CCCC)C(=O)c1nn(-c2ccc(C(=O)NS(=O)(=O)c3ccc4ccccc4c3)cc2C(=O)N2CCc3ccccc3C2)c(C)c1Cl` were 24 nM and 32 nM.
For `CCCCN(CCCC)C(=O)c1nn(-c2ccc(C(=O)NS(=O)(=O)c3ccc4ccccc4c3)cc2C(=O)N2Cc3ccccc3C[C@H]2CN2CCN(C)CC2)c(C)c1Cl`, the IC50 was more than 10000 nM in test [1]; more than 10000 nM in the test on MV4-11 [2]; 22 nM against Bcl-2-like protein 1; 140 nM in [4]; 4800 nM in the test with MV4-11 [5]; 9700 nM in [7].
For the molecule `CCCCN(CCCC)C(=O)c1nn(-c2ccc(C(=O)NS(=O)(=O)c3ccc4ccc(OCCN5CCOCC5)cc4c3)cc2C(=O)N2CCc3ccccc3C2)c(C)c1Cl`, the IC50 against Bcl-2-like protein 1 was determined as 54 nM; in test [4], 400 nM.
`CCCCN(CCCC)C(=O)c1nn(-c2ccc(C(=O)NS(=O)(=O)c3ccc4ccccc4c3)cc2C(=O)N2Cc3ccccc3C[C@H]2COCCN(C)C)c(C)c1Cl`: the IC50 at Bcl-2-like protein 1 was determined as 47 nM; in test [4], 37 nM.
The corresponding values for `CCCCN(CCCC)C(=O)c1nn(-c2ccc(C(=O)NS(=O)(=O)c3ccc4cccc(OCc5ccc(C(=O)O)cc5)c4c3)cc2C(=O)N2CCc3ccccc3C2)c(C)c1Cl` are 17 nM and 15 nM.
Taken in the same sequence, the figures for `CCCCN(CCCC)C(=O)c1nn(-c2ccc(C(=O)NS(=O)(=O)c3ccc4cccc(S(=O)(=O)CC)c4c3)cc2C(=O)N2CCc3ccccc3C2)c(C)c1Cl` were 150 nM and 180 nM.
`CCCCN(CCCC)C(=O)c1nn(-c2ccc(C(=O)NS(=O)(=O)c3ccc4ccccc4c3)cc2C(=O)N2Cc3ccccc3C[C@H]2CN2CCOCC2)c(C)c1Cl`: the IC50 in test [1] was more than 10000 nM; with MV4-11 [2] it was more than 10000 nM; against Bcl-2-like protein 1, 16 nM; in test [4] it was 14 nM; with MV4-11 [5] it was 3000 nM; in test [7] it was 6300 nM.
For the molecule `CCCCN(CCCC)C(=O)c1nn(-c2ccc(C(=O)NS(=O)(=O)c3ccc4c(c3)CCN4)cc2C(=O)N2CCc3ccccc3C2)c(C)c1Cl`, the IC50 against Bcl-2-like protein 1 was 23 nM; in test [4] it was 32 nM.

For the origin of these results see ChEMBL document CHEMBL2029223, “Identification of a phenylacylsulfonamide series of dual Bcl-2/Bcl-xL antagonists” (Bioorg Med Chem Lett, 2012).
